Assay results from US12551468B2, “Pharmaceutical composition for oral administration, for treatment of liver cancer” (ETNOVA Therapeutics Corp., priority 2019, dated 2026).

Key:
[1] = tested on: human liver cancer cell line HepG2; test: Comparison of survival rate in the liver cancer animal model (Example 4); format: in vivo, nude mouse; settings: animal model test of Example 2; FIG. 5
Description: The human liver cancer cell line HepG2 was grown in Eagle's Minimum Essential Medium (EMEM) medium supplemented with 10% Fetal bovine serum (FBS) and 1% Antibiotic-Antimycotic. For liver cancer animal model production, stabilized cells were suspended in a 1:1 mixture (100 μL) of EMEM serum free media: Matrigel at a density of 5×10^6 cells/animal and then the suspension was transplanted subcutaneously to a flank of a nude mouse (5 weeks old, male). We have waited for the tumor formation for 3 weeks. When the tumor volume reached 200 mm^3, the body weight and the tumor size were measured and then the mice were randomly grouped. The mice were divided into 3 groups. Saline alone was administered intravenously to each group (Saline administered group (n=6, IV)). Cisplatin adjusted to pH 4 using NaCl aqueous solution, HCl aqueous solution, or NaOH aqueous solution was administered intravenously thereto (Cisplatin administered group (n=6, IV)). The compound according to the present disclosure (compound of Chemical Formula 1-1) dissolved in saline was forcibly administered orally thereto (administered group according to the present disclosure (n=6, P.O.)). The administration intervals and frequencies of administration to the groups were equal to each other. The administration was performed once a day and twice a week for 3 weeks. The dosage of Cisplatin (intravenous administration) was 5 mg/kg. […]

[2] = tested on: human liver cancer cell line HepG2; test: Anticancer effect test in liver cancer animal model using human liver cancer cell line (Example 2); format: in vivo, nude mouse; settings: for relative size of tumor isolated 21 days after administration: compound 100 mg/kg P.O., Cisplatin 5 mg/kg IV, twice a week for 3 weeks, FIG. 2
Description: The human liver cancer cell line HepG2 was grown in Eagle's Minimum Essential Medium (EMEM) medium supplemented with 10% Fetal bovine serum (FBS) and 1% Antibiotic-Antimycotic. For liver cancer animal model production, stabilized cells were suspended in a 1:1 mixture (100 μL) of EMEM serum free media: Matrigel at a density of 5×10^6 cells/animal and then the suspension was transplanted subcutaneously to a flank of a nude mouse (5 weeks old, male). We have waited for the tumor formation for 3 weeks. When the tumor volume reached 200 mm^3, the body weight and the tumor size were measured and then the mice were randomly grouped. The mice were divided into 3 groups. Saline alone was administered intravenously to each group (Saline administered group (n=6, IV)). Cisplatin adjusted to pH 4 using NaCl aqueous solution, HCl aqueous solution, or NaOH aqueous solution was administered intravenously thereto (Cisplatin administered group (n=6, IV)). The compound according to the present disclosure (compound of Chemical Formula 1-1) dissolved in saline was forcibly administered orally thereto (administered group according to the present disclosure (n=6, P.O.)). The administration intervals and frequencies of administration to the groups were equal to each other. The administration was performed once a day and twice a week for 3 weeks. The dosage of Cisplatin (intravenous administration) was 5 mg/kg. The composition was orally administered at 100 mg/kg to the administered group according to the present disclosure.
The mice were anesthetized immediately prior to the administration, and then the body weight thereof was measured to observe the change in the body weight. The change in the tumor size over time was observed based on a following equation.
Average tumor volume calculation equation: V (mean tumor volume)=(A×B×B)/2
(In the above equation, A denotes a length of a long side and B denotes a length of a short side).
Further, on 21 days after the administration, a start time of tumor necrosis in the saline group was designated as an end point of the experiment. All nude mice participating in the experiment were sacrificed. Only the tumor was isolated from the flank thereof, and the relative size of the tumor was photographed. In FIG. 2, grayish-white dots mean that all tumors have disappeared and an individual has a tumor which may not be distinguished.

[3] = tested on: Human liver cancer cells; test: Comparative test of anticancer effect according to administration route change (Example 5); format: in vivo; settings: 100 mg/kg P.O. vs 5 mg/kg I.V., twice a week for 4 weeks
Description: Human liver cancer cells were suspended in a 1:1 mixture (100 μL) of EMEM serum free media: Matrigel at a density of 2×10^6 cells/animal and the suspension was transplanted subcutaneously into the flank of nude mice (5 weeks old, male). We have waited for the tumor formation for 4 weeks. When the tumor volume reached 100 mm^3, the body weight and the tumor size were measured and then the mice were randomly grouped. The mice were divided into 4 groups. Saline alone was administered intravenously to each group (Saline administered group (n=6, I.V.)). Cisplatin adjusted to pH 4 using NaCl aqueous solution, HCl aqueous solution, or NaOH aqueous solution was administered intravenously thereto (Cisplatin administered group (n=5, I.V.)). […] The mice were anesthetized immediately prior to administration, and the body weight was measured to observe the change in the body weight. The changes in the body weight and the tumor size for 4 weeks were measured in the same manner as in Example 1 above, and the results are shown in FIG. 6. In the same manner as in Example 2, the tumor was separated and the relative size of the tumor was measured, and the photographed tissue is shown in FIG. 7.

[4] = Comparative study of blood and histological toxicity (serum GOT/GPT activity, Sirius red staining of liver and kidney); format: in vivo; settings: oral administration, end of Example 2 experiment; FIG. 3 and FIG. 4
Description: Toxicity was analyzed based on activity assay of GOT and GPT. A specific experimental method is as follows: GOT and GPT activity in serum was measured using a reagent kit (Asan Pharmaceutical) prepared according to a method of Reitman-Frankel. At an end of the experiment, blood was collected from an abdominal vena cava of the mice to which the compound was administered, and serum was separated therefrom. When a substrate solution was added to the serum which in turn was heated for a certain period of time, oxalacetate and glutamic acid were generated from the substrate solution for GOT measurement (aspartate, a-ketoglutarate mixture) due to the action of serum GOT, while under GPT action, pyruvate and glutamic acid were generated from the substrate solution for GPT measurement (Alanine, a-ketoglutarate mixture). Then, […] was added thereto such that 2,4-dinitrophenylhydrazone of oxaloacetate or pyruvate was produced, and NaOH was added thereto to develop color, and then absorbance was measured (505 nm). The activity of GOT and GPT in serum was calculated from a standard calibration curve as prepared separately.
At the end of the experiment, the blood of nude mice participating in the experiment was perfused and livers and kidneys were obtained. The tissues were fixed in 4% paraformaldehyde. […]

[5] = 100 mg/kg P.O., once a day twice a week for 3 weeks, FIG. 1

SMILES: NCC(N)C(=O)Nc1ccc(-c2nc3ccccc3s2)cc1 (centres unmarked) [Chemical Formula 1-1]
- survival over time after drug administration [1]: the survival was higher
- change in body weight for 3 weeks [2, 5]: no decrease in the body weight
- change in tumor size for 3 weeks [2, 5]: the tumor disappeared or the size thereof was significantly reduced
- relative size of tumor isolated 21 days after administration [2]: tumors significantly decrease or completely disappear
- toxicity based on the change in body weight, oral compared to intravenous administration ([3]; FIG. 6): the toxicity based on the change in body weight may be lowered
- anticancer effect (tumor size, isolated tumor at 28 days, survival), oral compared to intravenous administration ([3]; FIGS. 6, 7, 8): the anticancer effect may be significantly better
- toxicity in the liver and kidneys (serum GOT and GPT activity, tissue histology) [4]: significantly lowered

SMILES: N.N.[Cl][Pt][Cl] [Cisplatin, cisplatin, reference compound]
- relative size of tumor isolated 21 days after administration [2]: tumor cells remain
